Data set [1] concerns Human immunodeficiency virus 1. The data set is described as follows: Inhibition of recombinant wild type HIV1 reverse transcriptase assessed as reduction in biotin-dUTP incorporation at 50 uM using poly(A)/oligo(dT)15 as template/primer by ELISA relative to control. A general note: An ELISA detects its analyte on a solid surface through an enzyme-linked reagent.
Data set [2] deals with Human immunodeficiency virus 1. In words: Antiviral activity against wild type HIV1 3B infected in human MT4 cells assessed as inhibition of virus-induced cytopathic effect after 5 days by MTT assay. Format: functional, cell-based. The note with it: Human immunodeficiency virus 1, 3B, MT4, 120 h. (Damage to the host cells serves as the signal in cytopathic effect assays.)

The nature of data set [3]: Selectivity index, ratio of CC50 for human MT4 cells to EC50 for wild type HIV1 3B infected in human MT4 cells. The note with it: read-out: Ratio CC50/EC50. The data set is classed as toxicity, cell-based.
The test system of data set [4] is Human immunodeficiency virus 2. The data set is described as follows: Antiviral activity against HIV2 ROD harboring reverse transcriptase K103N/Y181C double mutant infected in human MT4 cells assessed as inhibition of virus-induced cytopathic effect after 5 days by MTT assay. Format: functional, cell-based. The note with it: ISOLATE ROD.
The nature of data set [5]: Cytotoxicity against human MT4 cells assessed as reduction in cell viability after 5 days by MTT assay. Format: cell-based.
Data set [6] deals with Human immunodeficiency virus 1. In words: Antiviral activity against HIV1 RES056 harboring reverse transcriptase K103N/Y181C double mutant infected in human MT4 cells assessed as inhibition of virus-induced cytopathic effect after 5 days by MTT assay. The data set is classed as functional, cell-based.

Here are results for 27 compounds from ChEMBL document CHEMBL4052715, “Discovery of novel DAPY-IAS hybrid derivatives as potential HIV-1 inhibitors using molecular hybridization based on crystallographic overlays” (Bioorg Med Chem, 2017).

By inhibition is commonly meant the percentage by which the read-out fell short of the control. As usually defined, the EC50 is the concentration giving half of the maximal effect. Broadly, the CC50 is the concentration giving 50% cytotoxicity.

Each structure is given as a SMILES string. The source made the active and inactive calls. No cut-off for these calls is given here.

Turning to `Cc1ccc(S(=O)(=O)Nc2ccnc(Nc3ccc(C#N)cc3)c2)cc1`, the inhibition in data set [1] was 5.7%. The EC50 in data set [2] was found to be 1.48 µM. For the same compound, the selectivity ratio in data set [3] worked out at 9. For the same compound, the inhibition result in data set [4] and in data set [6] was “inactive” throughout. For the same compound, the CC50 at 120 h in data set [5] was determined as 14 µM.

For `N#Cc1ccc(Nc2cc(NS(=O)(=O)c3cc(C(F)(F)F)cc(C(F)(F)F)c3)ccn2)cc1`, the concentration giving a half-maximal response (EC50) in data set [2] was greater than 62.2 µM. In addition, the selectivity ratio in data set [3] was less than 1. Also, the inhibition result in data set [4] and in data set [6] was “inactive” each time. In addition, the CC50 at 120 h in data set [5] came to 62.2 µM.

Take `Cc1cc(C)cc(S(=O)(=O)Nc2ccnc(Nc3ccc(C#N)cc3)c2)c1`: the EC50 in data set [2] is greater than 5.06 µM. Also, the selectivity ratio in data set [3] was less than 1. The inhibition entry in data set [4] and in data set [6] was “inactive” throughout. Moreover, the CC50 at 120 h in data set [5] worked out at 5.06 µM.

Consider `Cc1cc(C)cc(S(=O)(=O)c2c(C(N)=O)[nH]c3ccc(Cl)cc23)c1`, for which the EC50 in data set [2] turned out to be 0.0026 µM. Besides, the selectivity ratio in data set [3] was 4260. The CC50 at 120 h in data set [5] turned out to be 11 µM.

As for `N#Cc1ccc(Nc2cc(NS(=O)(=O)c3ccc(F)cc3)ccn2)cc1`, the EC50 in data set [2] is greater than 6.12 µM. For the same compound, the selectivity ratio in data set [3] is less than 1. For the same compound, the inhibition entry in data set [4] and in data set [6] was “inactive” each time. In addition, in data set [5], the CC50 at 120 h was 6.12 µM.

On to `Cc1ccnc2c1NC(=O)c1cccnc1N2C1CC1`, for which, in data set [1], the inhibition was determined as 88%.

For the compound `N#Cc1ccc(Nc2cc(NS(=O)(=O)c3ccc(C#N)cc3)ccn2)cc1`, in data set [2], the EC50 is greater than 93.4 µM. In addition, the selectivity ratio in data set [3] was less than 1. Further, the inhibition result in data set [4] and in data set [6] was “inactive” in each case. Besides, the CC50 at 120 h in data set [5] is 93.4 µM.

As to `N#Cc1ccc(Nc2nccc(NS(=O)(=O)c3cc(F)cc(F)c3)n2)cc1`, in data set [2], the EC50 turned out to be 47 µM. Moreover, the selectivity ratio in data set [3] came out at 2. Also, the inhibition result in data set [4] and in data set [6] was “inactive” throughout. Moreover, the CC50 at 120 h in data set [5] stood at 93.9 µM.

For `N#Cc1ccc(Nc2nccc(NS(=O)(=O)c3ccc4ccccc4c3)n2)cc1`, in data set [2], the EC50 was found to be 48.9 µM. The selectivity ratio in data set [3] came to 2. For the same compound, the inhibition result in data set [4] and in data set [6] was “inactive” throughout. Further, the CC50 at 120 h in data set [5] is 77.1 µM.

For the compound `Cc1cc(C)c(S(=O)(=O)Nc2ccnc(Nc3ccc(C#N)cc3)c2)c(C)c1`, in data set [2], the EC50 was determined as 6.08 µM. The selectivity ratio in data set [3] was 4. The inhibition result in data set [4] and in data set [6] was “inactive” each time. Further, the CC50 at 120 h in data set [5] stood at 22.2 µM.

Regarding `Cc1cc(C#N)cc(C)c1Oc1nc(Nc2ccc(C#N)cc2)nc(N)c1Br` [ETRAVIRINE], the inhibition in data set [1] was 93.3%. In addition, the EC50 in data set [2] was 0.004 µM. Besides, in data set [3], the selectivity ratio stood at 541. The CC50 at 120 h in data set [5] worked out at 2.15 µM.

As for `N#Cc1ccc(Nc2nccc(NS(=O)(=O)c3ccc(C#N)cc3)n2)cc1`, the EC50 in data set [2] was 39.4 µM. Further, the selectivity ratio in data set [3] was determined as 4. For the same compound, the inhibition entry in data set [4] and in data set [6] was “inactive” each time. For the same compound, the CC50 at 120 h in data set [5] was determined as 159 µM.

For the compound `N#Cc1ccc(Nc2nccc(NS(=O)(=O)c3cc(C(F)(F)F)cc(C(F)(F)F)c3)n2)cc1`, the EC50 in data set [2] was greater than 115 µM. Moreover, in data set [3], the selectivity ratio is less than 1. Also, the inhibition result in data set [4] and in data set [6] was “inactive” each time. Moreover, in data set [5], the CC50 at 120 h is 115 µM.

With `Cc1cc(C)cc(S(=O)(=O)Nc2ccnc(Nc3ccc(C#N)cc3)n2)c1`, in data set [2], the EC50 turned out to be 6.21 µM. For the same compound, the selectivity ratio in data set [3] amounted to 28. The inhibition entry in data set [4] and in data set [6] was “inactive” in each case. In addition, the CC50 at 120 h in data set [5] was found to be 173 µM.

For `CC(C)c1cc(C(C)C)c(S(=O)(=O)Nc2ccnc(Nc3ccc(C#N)cc3)c2)c(C(C)C)c1`, in data set [2], the EC50 was greater than 11.5 µM. Besides, the selectivity ratio in data set [3] is less than 1. Also, the inhibition result in data set [4] and in data set [6] was “inactive” throughout. Further, the CC50 at 120 h in data set [5] worked out at 11.5 µM.

As for `Cc1ccc(S(=O)(=O)Nc2ccnc(Nc3ccc(C#N)cc3)n2)cc1`, the inhibition in data set [1] came out at 41.5%. Also, the EC50 in data set [2] was 1.61 µM. In addition, in data set [3], the selectivity ratio amounted to 80. For the same compound, the inhibition result in data set [4] and in data set [6] was “inactive” throughout. For the same compound, the CC50 at 120 h in data set [5] worked out at 130 µM.

For `Cc1cc(C)c(S(=O)(=O)Nc2ccnc(Nc3ccc(C#N)cc3)n2)c(C)c1`, the EC50 in data set [2] was greater than 4.4 µM. Moreover, the selectivity ratio in data set [3] was less than 1. The inhibition entry in data set [4] and in data set [6] was “inactive” throughout. In addition, in data set [5], the CC50 at 120 h was determined as 4.4 µM.

Turning to `Nc1ccn([C@@H]2CS[C@H](CO)O2)c(=O)n1` [LAMIVUDINE], the EC50 in data set [2] stood at 2.54 µM. Also, the selectivity ratio in data set [3] was greater than 34. For the same compound, in data set [5], the CC50 at 120 h was greater than 87.2 µM.

On to `CC(C)c1cc(C(C)C)c(S(=O)(=O)Nc2ccnc(Nc3ccc(C#N)cc3)n2)c(C(C)C)c1`, for which the concentration for a half-maximal effect (EC50) in data set [2] was greater than 17.4 µM. Further, the selectivity ratio in data set [3] was less than 1. The inhibition entry in data set [4] and in data set [6] was “inactive” throughout. Also, the CC50 at 120 h in data set [5] was found to be 17.4 µM.

For `CC(C)(C)c1ccc(S(=O)(=O)Nc2ccnc(Nc3ccc(C#N)cc3)n2)cc1`, the EC50 in data set [2] is 7.52 µM. Also, the selectivity ratio in data set [3] came out at 4. Besides, the inhibition result in data set [4] and in data set [6] was “inactive” throughout. Also, in data set [5], the CC50 at 120 h turned out to be 30.3 µM.

With `N#Cc1ccc(Nc2cc(NS(=O)(=O)c3cc(F)cc(F)c3)ccn2)cc1`, the EC50 in data set [2] was greater than 28.6 µM. Moreover, in data set [3], the selectivity ratio was less than 1. For the same compound, the inhibition entry in data set [4] and in data set [6] was “inactive” in each case. The CC50 at 120 h in data set [5] came to 28.6 µM.

Turning to `CC(C)(C)c1ccc(S(=O)(=O)Nc2ccnc(Nc3ccc(C#N)cc3)c2)cc1`, the EC50 in data set [2] came out at 4.92 µM. Besides, the selectivity ratio in data set [3] amounted to 6. For the same compound, the inhibition entry in data set [4] and in data set [6] was “inactive” in each case. In addition, in data set [5], the CC50 at 120 h turned out to be 29.3 µM.

As to `N#Cc1ccc(Nc2nccc(NS(=O)(=O)c3ccc(C(F)(F)F)cc3)n2)cc1`, the EC50 in data set [2] is greater than 54.7 µM. In addition, the selectivity ratio in data set [3] is less than 1. In addition, the inhibition result in data set [4] and in data set [6] was “inactive” each time. In addition, in data set [5], the CC50 at 120 h is 54.7 µM.

Take `N#Cc1ccc(Nc2cc(NS(=O)(=O)c3ccc4ccccc4c3)ccn2)cc1`: the EC50 in data set [2] was greater than 30 µM. For the same compound, the selectivity ratio in data set [3] was less than 1. In addition, the inhibition result in data set [4] and in data set [6] was “inactive” in each case. Further, the CC50 at 120 h in data set [5] came to 30 µM.

On to `N#Cc1ccc(Nc2cc(NS(=O)(=O)c3ccc(C(F)(F)F)cc3)ccn2)cc1`, for which the EC50 in data set [2] is greater than 28 µM. The selectivity ratio in data set [3] was less than 1. Besides, the inhibition result in data set [4] and in data set [6] was “inactive” each time. The CC50 at 120 h in data set [5] amounted to 28 µM.

As to `O=c1[nH]cnc2c1ncn2[C@H]1CC[C@@H](CO)O1` [DIDANOSINE], in data set [2], the EC50 turned out to be 76 µM. In data set [3], the selectivity ratio is greater than 3. For the same compound, in data set [5], the CC50 at 120 h is greater than 212 µM.

As for `N#Cc1ccc(Nc2nccc(NS(=O)(=O)c3ccc(F)cc3)n2)cc1`, the EC50 in data set [2] was no less than 9.05 µM. For the same compound, the selectivity ratio in data set [3] was no more than 4. For the same compound, the inhibition entry in data set [4] and in data set [6] was “inactive” in each case. The CC50 at 120 h in data set [5] worked out at 36.6 µM.
